# Where a name gives a salt, the structure may show the parent alone.
# Tested on: cutaneous trunci muscle reflex
# Assay: guinea pig pin-prick assay, local anesthetic efficacy of subcutaneously implanted sponges
# Type: in vivo
# Conditions: subcutaneous implant (sponge about 0.5 g) or 0.5 mL solution injected, n=6
# From the text: To evaluate in vivo the local anesthetic efficacy of the drug-loaded implanted thermosensitive hydroxypropyl chitin sponges prepared in Example 1, guinea pig pin-prick assay was employed in this invention. Guinea pigs (around 300 g) were induced and maintained with isoflurane. Then the left backs of guinea pigs were shaved before treatment. One longitudinal skin incision with 1.5 cm in length was made by a scalpel at 2 cm left of ridge midline on the back of the guinea pig. Subsequently, one cuboid sponge about 0.5 g (1 cm×1 cm×0.5 cm) was put right in the middle of the incision below the skin. The incision was finally stitched up. 36 animals were randomly divided into six experimental groups with each of 6: group 1: BPV-loaded 0.8B %-HPCH (3.6 wt %) sponge, group 2: 0.8B %-collagen/HPCH (0.6/3.0 wt %) sponge, group 3: 1.2B %-HPCH (3.6 wt %) sponge, group 4: 2.4B %-HPCH (3.6 wt %) sponge, 0.8%-BPV group 5 (0.8 wt % BPV solution) and sham-operated group 6. As for sham-operated group, the incision was made and stitched up without placing a sponge. For BPV solution group, a volume of 0.5 mL 0.8% BPV solution was injected subcutaneously near the skin incision using 30-gage hypodermic needle. […] The nociceptive blockade score (N %) was calculated as following equation: N %=n/8×100%. […]
structure (smiles),measurement,value
"CCCCN1CCCCC1C(=O)Nc1c(C)cccc1C (stereo not shown) [0.8%-BPV, bupivacaine hydrochloride]",effective duration of blockade (time with nociceptive blockade score≥50%),1 h

# — US20250041209A1, “THERMOSENSITIVE MODIFIED CHITIN SPONGE DRUG-LOADED IMPLANTED SUSTAINED-RELEASE SYSTEM, PREPARATION METHOD THEREFORE, AND USE THEREOF” (priority 2022, published 2025)
